Measured values: ChEMBL document CHEMBL2176957, “Discovery of a novel noniminosugar acid α glucosidase chaperone series” (J Med Chem, 2012)
Converted amounts (≈) assume the structure as drawn.

What was measured:
[1] = target: T1, Lysosomal alpha-glucosidase (Homo sapiens, UniProt P10253); experiment: Inhibition of wild type recombinant GAA preincubated for 5 mins measured after 45 mins using red-shifted dye by fluorescence assay
[2] = target: T1, Lysosomal alpha-glucosidase; experiment: Inhibition of wild type recombinant GAA preincubated for 5 mins measured after 45 mins using blue-shifted dye by fluorescence assay
Liver = experiment: Half life in mouse liver microsomes
[3] = Aqueous solubility in PBS buffer

| Compound | IC50 [1] | IC50 [2] | IC50 ([1]; read-out: IC50) | IC50 ([2]; read-out: IC50) | t1/2 (Liver) | solubility [3] |
| --- | --- | --- | --- | --- | --- | --- |
| CC(=O)c1ccc(N2CCN(S(=O)(=O)c3ccc4c(c3)CCCN4C(C)=O)CC2)cc1 | Not Active | Not Active | – | – | – | – |
| CC(=O)c1ccc(N2CCN(S(=O)(=O)c3ccc4c(c3)CCCC(=O)N4)CC2)cc1 | Not Active | Not Active | – | – | – | – |
| CC(=O)c1ccc(N2CCN(S(=O)(=O)c3ccc4c(c3)n(C)c(=O)n4C)CC2)cc1 | Not Active | Not Active | – | – | – | – |
| CC(=O)c1ccc(N2CCN(S(=O)(=O)c3ccc4c(c3)oc(=O)n4C)CC2)cc1 | Not Active | Not Active | – | – | – | – |
| CC(=O)c1ccc(N2CCN(S(=O)(=O)c3ccc4c(c3)OCC(=O)N4)CC2)cc1 | Not Active | Not Active | – | – | – | – |
| CC(=O)c1ccc(N2CCN(S(=O)(=O)c3ccc4[nH]c(=O)[nH]c4c3)CC2)cc1 | Not Active | Not Active | – | – | – | – |
| CC(=O)Nc1ccc(S(=O)(=O)N2CCN(c3ccc(C(C)=O)cc3)CC2)cc1 | Not Active | Not Active | – | – | – | – |
| O=C1Cc2cc(S(=O)(=O)N3CCN(c4ccc(Br)cc4)CC3)ccc2N1 | Not Active | Not Active | – | – | – | – |
| CC(=O)N1CCN(S(=O)(=O)c2ccc3c(c2)CC(=O)N3)CC1 | – | – | 14.9 µM | 11.9 µM | – | – |
| COC(=O)c1ccc(N2CCN(S(=O)(=O)c3ccc4c(c3)CC(=O)N4)CC2)cc1 | – | – | 36.6 µM | 25.9 µM | – | – |
| N#Cc1ccc(N2CCN(S(=O)(=O)c3ccc4c(c3)CC(=O)N4)CC2)cc1 | – | – | 3.26 µM | 2.91 µM | 57 min | 14.9 µM (≈ 5.7 µg/mL) |
| Cc1ccc(N2CCN(S(=O)(=O)c3ccc4c(c3)CC(=O)N4)CC2)cc1 | Not Active | Not Active | – | – | – | – |
| O=C1Cc2cc(S(=O)(=O)N3CCNCC3)ccc2N1 | Not Active | Not Active | – | – | – | – |
| CC(=O)c1ccc(N2CCN(S(=O)(=O)c3ccc4c(c3)CC(C)N4C(C)=O)CC2)cc1 (centres undefined) | Not Active | Not Active | – | – | – | – |
| O=C1Cc2cc(S(=O)(=O)N3CCN(c4ccc(F)cc4)CC3)ccc2N1 | Not Active | Not Active | – | – | – | – |
| O=C1Cc2cc(S(=O)(=O)N3CCN(c4cccc(C(F)(F)F)c4)CC3)ccc2N1 | – | – | 14.9 µM | 14.9 µM | – | – |
